Columns and labels:
Aβ42 = assay: Screening for γ-secretase-modulating activity, Method 1: Aβ42 sandwich ELISA on SKNBE2 cell media; format: cell-based; conditions: SKNBE2 cells carrying APP 695 wild type
Description: (§1) Screening was carried out using SKNBE2 cells carrying the APP 695—wild type, grown in Dulbecco's Modified Eagle's Medium/Nutrient mixture F-12 (DMEM/NUT-mix F-12) (HAM) provided by Gibco (cat no. 31330-38) containing 5% Serum/Fe supplemented with 1% non-essential amino acids. Cells were grown to near confluency.
(§2) The screening was performed using the assay as described in Citron et al (1997) Nature Medicine 3: 67. Briefly, cells were plated in a 96-well plate at about 10^5 cells/ml one day prior to addition of compounds. Compounds were added to the cells in Ultraculture (Lonza, BE12-725F) supplemented with 1% glutamine (Invitrogen, 25030-024) for 18 hours. The media were assayed by two sandwich ELISAs, for Aβ42 and Aβtotal. Toxicity of the compounds was assayed by WST-1 cell proliferation reagent (Roche, 1 644 807) according to the manufacturer's protocol.
To quantify the amount of Aβ42 in the cell supernatant, commercially available Enzyme-Linked-Immunosorbent-Assay (ELISA) kits were used (Innotest® β-Amyloid(1-42), Innogenetics N.V., Ghent, Belgium). The Aβ42 ELISA was performed essentially according to the manufacturer's protocol. Briefly, the standards (dilutions of synthetic Aβ1-42) were prepared in polypropylene Eppendorf with final concentrations of 8000 down to 3.9 pg/ml (1/2 dilution step). Samples, standards and blanks (100 μl) were added to the anti-Aβ42-coated plate supplied with the kit (the capture antibody selectively recognizes the C-terminal end of the antigen). The plate was allowed to incubate 3 h at 25° C. in order to allow formation of the antibody-amyloid complex. Following this incubation and subsequent wash steps a selective anti-Aβ-antibody conjugate (biotinylated 3D6) was added and incubated for a minimum of 1 hour in order to allow formation of the antibody-Amyloid-antibody-complex. After incubation and appropriate wash steps, a Streptavidine-Peroxidase-Conjugate was added, followed 30 minutes later by an addition of 3,3′,5,5′-tetramethylbenzidine (TMB)/peroxide mixture, resulting in the conversion of the substrate into a coloured product. This reaction was stopped by the addition of sulfuric acid (0.9 N) and the colour intensity was measured by means of photometry with an ELISA-reader with a 450 nm filter.
(§3) To obtain the values reported in Table 3a, the sigmoidal dose response curves were analysed by computerised curve-fitting, with percent of inhibition plotted against compound concentration. A 4-parameter equation (model 205) in XLfit was used to determine the IC50. The top and the bottom of the curve were fixed to 100 and 0, respectively, and the hill slope was fixed to 1. The IC50 represents the concentration of a compound that is required for inhibiting a biological effect by 50% (Here, it is the concentration where Aβ peptide level is reduced by 50%).
(§4) To obtain the values reported in Table 3b, the data were calculated as percentage of the maximum amount of amyloid Beta 42 measured in the absence of the test compound. The sigmoidal dose response curves were analyzed using non-linear regression analysis with percentage of the control plotted against the log concentration of the compound. A 4-parameter equation was used to determine the IC50. The values reported in Table 3b are averaged IC50 values.

Aβtotal = assay: Screening for γ-secretase-modulating activity, Method 1: Aβtotal sandwich ELISA on SKNBE2 cell media; format: cell-based; conditions: SKNBE2 cells carrying APP 695 wild type
Description: as §1, §2
To quantify the amount of Aβtotal in the cell supernatant, samples and standards were added to a 6E10-coated plate. The plate was allowed to incubate overnight at 4° C. in order to allow formation of the antibody-amyloid complex. Following this incubation and subsequent wash steps a selective anti-Aβ-antibody conjugate (biotinylated 4G8) was added and incubated for a minimum of 1 hour in order to allow formation of the antibody-Amyloid-antibody-complex. After incubation and appropriate wash steps, a Streptavidine-Peroxidase-Conjugate was added, followed 30 minutes later by an addition of Quanta Blu fluorogenic peroxidase substrate according to the manufacturer's instructions (Pierce Corp., Rockford, Ill.).
as §3, §4

[1] = Table 3a, 18 hours, XLfit, top/bottom fixed to 100 and 0, hill slope 1
[2] = Table 3b, non-linear regression of % of control, averaged IC50 values
[3] = Homo sapiens, Table 3a, 18 hours, XLfit, top/bottom fixed to 100 and 0, hill slope 1
[4] = Homo sapiens, Table 3b, non-linear regression of % of control, averaged IC50 values

For `COc1cc(Nc2cccc3oc(C4CCCC4)nc23)ccc1-n1cnc(C)c1` [Compound 37], the IC50 (Aβ42; [1]) was 266 nM, the IC50 (Aβ42; [2]) was 275 nM and the IC50 (Aβtotal; [1]) was greater than 10000 nM. The IC50 (Aβtotal; [2]) was greater than 10000 nM.

For `COc1cc(Nc2cccc3c2nc(N2CCCCC2)n3C)ccc1-n1cnc(C)c1` [Compound 39], the IC50 (Aβ42; [1]) was 69 nM, the IC50 (Aβ42; [2]) was 87 nM and the IC50 (Aβtotal; [1]) was greater than 3000 nM. It also gave an IC50 (Aβtotal; [2]) greater than 5000 nM.

With `COc1cc(Nc2cccc3oc(C4CCN(C(=O)OC(C)(C)C)CC4)nc23)ccc1-n1cnc(C)c1` [Compound 42] the IC50 (Aβ42; [1]) was 1100 nM, the IC50 (Aβ42; [2]) was 1100 nM and the IC50 (Aβtotal; [1]) was greater than 3000 nM. It also gave an IC50 (Aβtotal; [2]) greater than 3000 nM.

Molecule `COc1cc(Nc2cccc3c2nc(CC2CCOCC2)n3C)ccc1-n1cnc(C)c1` [Compound 43] has an IC50 (Aβ42; [1]) of 123 nM, an IC50 (Aβ42; [2]) of 120 nM and an IC50 (Aβtotal; [1]) greater than 1000 nM. For the same molecule, the IC50 (Aβtotal; [2]) was greater than 5000 nM.

`COc1cc(Nc2cccc3c2nc(-c2ccccc2C)n3Cc2ccccc2)ccc1-n1cnc(C)c1` [Compound 46] gave an IC50 (Aβ42; [3]) of 10 nM, an IC50 (Aβ42; [4]) of 10 nM and an IC50 (Aβtotal; [3]) greater than 1000 nM. It also gave an IC50 (Aβtotal; [4]) greater than 3000 nM.

Work on `COc1ccc(-c2nc3c(Nc4ccc(-n5cnc(C)c5)c(OC)c4)cccc3n2C)cc1` [Compound 47] yielded an IC50 (Aβ42; [1]) of 16 nM, an IC50 (Aβ42; [2]) of 13 nM and an IC50 (Aβtotal; [1]) greater than 1000 nM. The IC50 (Aβtotal; [2]) was greater than 3000 nM.

With `COc1ccccc1-c1nc2c(Nc3ccc(-n4cnc(C)c4)c(OC)c3)cccc2o1` [Compound 48] the IC50 (Aβ42; [1]) was 427 nM, the IC50 (Aβ42; [2]) was 398 nM and the IC50 (Aβtotal; [1]) was greater than 10000 nM. The IC50 (Aβtotal; [2]) was greater than 10000 nM.

For `COc1cccc(-c2nc3c(Nc4ccc(-n5cnc(C)n5)cc4)cccc3n2C)c1` [Compound 50], the IC50 (Aβ42; [1]) was 101 nM, the IC50 (Aβ42; [2]) was 81 nM and the IC50 (Aβtotal; [1]) was greater than 10000 nM. It also gave an IC50 (Aβtotal; [2]) greater than 10000 nM.

Work on `COc1cccc(-c2nc3c(Nc4ccc(-n5cnc(C)n5)c(OC)c4)cccc3n2C)c1` [Compound 52] yielded an IC50 (Aβ42; [1]) of 20 nM, an IC50 (Aβ42; [2]) of 19 nM and an IC50 (Aβtotal; [1]) greater than 3000 nM. For the same molecule, the IC50 (Aβtotal; [2]) was greater than 3000 nM.

Molecule `COc1cccc(-c2nc3c(Nc4ccc(-n5cnc(C)n5)c(OC)c4)cccc3n2C(C)C)c1` [Compound 53] has an IC50 (Aβ42; [1]) of 22 nM, an IC50 (Aβ42; [2]) of 19 nM and an IC50 (Aβtotal; [1]) greater than 1000 nM. It also gave an IC50 (Aβtotal; [2]) greater than 3000 nM.

`CCOc1cc(C)c(-c2nc3c(Nc4ccc(-n5cnc(C)n5)c(OC)c4)cccc3n2C)cc1C(C)C` [Compound 58] gave an IC50 (Aβ42; [1]) of 68 nM, an IC50 (Aβ42; [2]) of 65 nM and an IC50 (Aβtotal; [1]) greater than 3000 nM. The IC50 (Aβtotal; [2]) was greater than 3000 nM.

`CCOc1cc(C)c(Nc2nc3c(Nc4ccc(-n5cnc(C)c5)c(OC)c4)cccc3n2C)cc1C(C)C` [Compound 60] was tested, and the IC50 (Aβ42; [1]) was 14 nM, the IC50 (Aβ42; [2]) was 14 nM and the IC50 (Aβtotal; [1]) was greater than 1000 nM. For the same molecule, the IC50 (Aβtotal; [2]) was greater than 3000 nM.

Work on `COc1cc(Nc2cccc3[nH]c(-c4ccc(F)cc4)nc23)ccc1-n1cnc(C)c1` [Compound 62] yielded an IC50 (Aβ42; [1]) of 114 nM, an IC50 (Aβ42; [2]) of 195 nM and an IC50 (Aβtotal; [1]) greater than 1000 nM. The IC50 (Aβtotal; [2]) was greater than 3000 nM.

`COc1cc(Nc2cccc3c2nc(-c2ccc(F)cc2)n3C)ccc1-n1ccnc1` [Compound 63] showed an IC50 (Aβ42; [1]) of 23 nM, an IC50 (Aβ42; [2]) of 22 nM and an IC50 (Aβtotal; [1]) greater than 1000 nM. For the same molecule, the IC50 (Aβtotal; [2]) was greater than 3000 nM.

`COc1cc(Nc2cccc3c2nc(-c2ccc(F)cc2)n3C)ccc1-n1cncn1` [Compound 64] was tested, and the IC50 (Aβ42; [1]) was 48 nM, the IC50 (Aβ42; [2]) was 49 nM and the IC50 (Aβtotal; [1]) was greater than 3000 nM. The IC50 (Aβtotal; [2]) was greater than 3000 nM.

Molecule `Cn1c(-c2ccc(F)cc2)nc2c(Nc3ccc(-n4cncn4)c(F)c3)cccc21` [Compound 65] has an IC50 (Aβ42; [1]) of 89 nM, an IC50 (Aβ42; [2]) of 81 nM and an IC50 (Aβtotal; [1]) greater than 3000 nM. It also gave an IC50 (Aβtotal; [2]) greater than 3000 nM.

Work on `COc1cc(Nc2cccc3c2nc(-c2ccc(F)cc2)n3C)ccc1-n1cnc(C#N)c1` [Compound 72] yielded an IC50 (Aβ42; [1]) of 720 nM, an IC50 (Aβ42; [2]) of 724 nM and an IC50 (Aβtotal; [1]) greater than 3000 nM. For the same molecule, the IC50 (Aβtotal; [2]) was greater than 3000 nM.

`Cc1ncn(-c2ccc(Nc3cccc4c3nc(-c3ccc(F)cc3)n4C(C)(C)C)cc2)n1` [Compound 77] gave an IC50 (Aβ42; [1]) of 190 nM, an IC50 (Aβ42; [2]) of 191 nM and an IC50 (Aβtotal; [1]) greater than 3000 nM. It also gave an IC50 (Aβtotal; [2]) greater than 3000 nM.

In the case of `COc1cc(Nc2cccc3c2nc(-c2ccc(F)cc2)n3Cc2ccccc2)ccc1-n1cnc(C)c1` [Compound 79], the IC50 (Aβ42; [1]) is reported as 24 nM, the IC50 (Aβ42; [2]) is reported as 23 nM and the IC50 (Aβtotal; [1]) is reported as greater than 10000 nM. It also gave an IC50 (Aβtotal; [2]) greater than 10000 nM.
